Structures can show the parent of a compound that is named as a salt. Where two headings read alike, the source gives them in different places.
Tests used:
LSD1 = LSD1 (Homo sapiens (Human), UniProt O60341); assay: LSD1 enzyme activity detection (HTRF); type: biochemical; settings: HTRF, H3K4me1 substrate; read-out: Inhibition of enzymatic activity of LSD1 IC50
NCI-H1417 cells = assay: In vitro cell proliferation detection (CellTiter-Glo, 7 days); type: cell-based; settings: NCI-H1417 cells, 7 days, CellTiter-Glo, read-out: NCI-H1417 proliferation inhibition IC50

Compound | IC50 (LSD1) [nM] | IC50 (NCI-H1417 cells; Homo sapiens, 168 h) [nM] | IC50 (NCI-H1417 cells) [nM]
O=C(c1cc(CN[C@@H]2C[C@H]2c2ccc(F)cc2)nc(-c2cccnc2)n1)N1CCOCC1 [Example 240] | 770 | 29.5 | –
CNC1CCN(c2cc(O)c(-c3ccc(OC)c(F)c3)c(-c3ccc(C#N)c(F)c3)n2)CC1 [Example 55, 2-fluoro-4-(3-(3-fluoro-4-methoxyphenyl)-4-hydroxy-6-(4-(methylamino)piperidin-1-yl)pyridin-2-yl)benzonitrile] | 2.3 ± 0.7 | 10 ± 2.9 | –
O=C(O)C1CCN(C(=O)c2cc(CN[C@@H]3C[C@H]3c3ccc(F)cc3)nc(-c3ccc(-n4cccn4)cc3)n2)CC1 [Example 234] | 165 ± 8 | 31 ± 8 | –
Cc1ccc(-c2c(-c3ccc(C#N)c(F)c3)nc(N3C4CCC3CC(N)C4)n3ccnc23)cc1O (stereo not shown) [Example 156, 4-(5-(3-amino-8-azabicyclo[3.2.1]octane-8-yl)-8-(3-hydroxy-4-methylphenyl)imidazolo[1,2-c]pyrimidin-7-yl)-2-fluorobenzo nitrile hydrochloride] | 0.2 ± 0.06 | 0.447 | –
N#Cc1ccc(-c2cc(C(=O)N3C4CCC3CC(N)C4)sc2-c2ccc3cc[nH]c3c2)cc1F (stereo not shown) [Example 200, 4-(5-(3-amino-8-azabicyclo [3.2.1]octane-8-carbonyl)-2-(1-hydro-indol-6-yl)thiophen-3-yl)-2-fluorobenzonitrile] | 0.69 | 34 | –
COc1ccc(-c2c(-c3ccc(C#N)c(F)c3)nc(N3CCC(N)CC3)n3c(C)cnc23)cc1O [Example 187, 4-(5-(4-aminopiperidin-1-yl)-8-(3-hydroxy-4-methoxyphenyl)-3-methylimidazolo[1,2-c]pyrimidin-7-yl)-2-fluorobenzonitrile] | 0.8 ± 0.1 | 1.11 | –
COc1ccc(-c2c(-c3ccc(C#N)c(F)c3)nc(N3CCC(N)CC3)c(C)c2OC)cc1O [Example 101, 4-(6-(4-aminopiperidin-1-yl)-3-(3-hydroxy-4-methoxyphenyl)-4-methoxy-5-methylpyridin-2-yl)-2-fluorobenzonitrile] | 1 ± 0.2 | 0.917 | –
COc1cc(-c2c(OC)cc(N3CCC(N)CC3)nc2-c2ccc(C#N)c(F)c2)ccc1O [Example 97, 4-(6-(4-aminopiperidin-1-yl)-3-(4-hydroxy-4-methoxyphenyl)-4-methoxypyridin-2-yl)-2-fluorobenzonitrile] | 88.5 | 185 | –
N#Cc1ccc(-c2nc(N3CCC(N)CC3)n3ccnc3c2-c2ccn3ccnc3c2)cc1F [Example 131, 4-(5-(4-aminopiperidin-1-yl)-8-(imidazolo [1,2-a]pyridin-7-yl)imidazolo[1,2-c]pyrimidin-7-yl)-2-fluorobenzonitrile] | 4.46 ± 0.09 | 80.7 | –
N#Cc1ccc(-c2nc(N3CCC(N)CC3)cc(O)c2-c2ccc(F)c(O)c2)cc1F [Example 58, 4-(6-(4-aminopiperidin-1-yl)-3-(4-fluoro-3-hydroxyphenyl)-4-hydroxypyridin-2-yl)-2-fluorobenzonitrile] | 1.3 ± 0.4 | 7.26 | –
N#CCn1ncc2cc(F)c(-c3sc(C(=O)N4C5CCC4CC(N)C5)nc3-c3ccc(C#N)c(F)c3)cc21 (stereo not shown) [Example 221, 4-(2-(3-amino-8-azabicyclo[3.2.1]octan-8-carbonyl)-5-(1-(cyanomethyl)-5-fluoro-1H-indazol-6-yl)thiazol-4-yl)-2-fluorobenzonitrile hydrochloride] | 10 ± 3.2 | 29.8 | –
COc1ccc(-c2c(-c3ccc(C#N)c(F)c3)nc(N3CC4CCC3CC4N)n3ccnc23)cc1O (stereo not shown) [Example 166, 4-(5-(5-amino-2-azabicyclo [2.2.2]octane-2-yl)-8-(3-hydroxy-4-methoxyphenyl)imidazolo[1,2-c]pyrimidin-7-yl)-2-fluorobenzonitrile hydrochloride] | 1 ± 0.5 | 2.39 | –
COc1ccc(-c2c(-c3ccc(C#N)c(O)c3)nc(N3C4CCC3CC(N)C4)n3ccnc23)cc1F (stereo not shown) [Example 185, 4-(5-(3-amino-8-azabicyclo[3.2.1]octane-8-yl)-8-(3-fluoro-4-methoxyphenyl)imidazolo[1,2-c]pyrimidin-7-yl)-2-hydroxybenzonitrile] | 14.1 | 160 | –
Cc1ccc(-c2c(-c3ccc(C#N)cc3)cc3c(N4CCC[C@@H](N)C4)nncn23)cc1 [Example 4, (R)-4-(1-(3-aminopiperidin-1-yl)-6-(p-tolyl)pyrrolo[1,2-d] [1,2,4]triazine-7-yl)benzonitrile] | 2.3 ± 0.74 | 30.4 | –
CS(=O)(=O)N1CCN(C(=O)c2cc(CN[C@@H]3C[C@H]3c3ccc(F)cc3)nc(-c3ccn4ccnc4c3)n2)CC1 [Example 232] | 548 | 209 | –
COc1cc(N2CCC(N)CC2)nc(-c2ccc(C#N)c(F)c2)c1-c1ccc(F)c(O)c1 [Example 91, 4-(6-(4-aminopiperidin-1-yl)-3-(4-fluoro-3-hydroxyphenyl)-4-methoxypyridin-2-yl)-2-fluorobenzonitrile] | 1.1 ± 0.3 | 1.82 | –
N#Cc1ccc(-c2cc(C(=O)N3C4CCC3CC(N)C4)sc2-c2ccc3cn[nH]c3c2)cc1F (stereo not shown) [Example 203, 4-(5-(3-amino-8-azabicyclo [3.2.1]octane-8-carbonyl)-2-(1H-indazol-6-yl)thiophen-3-yl)-2-fluoro-benzonitrile] | 0.39 | 37.6 | –
CS(=O)(=O)N1CCN(C(=O)c2cc(CN[C@@H]3C[C@H]3c3ccc(F)cc3)nc(-c3ccccc3)n2)CC1 [Example 1] | 186 ± 69.6 | – | 11.3
Cc1ccc(-c2c(-c3ccc(C#N)c(F)c3)nc(N3CCC(C)(N)CC3)n3ccnc23)cc1O [Example 145, 4-(5-(4-amino-4-methylpiperidin-1-yl)-8-(3-hydroxy-4-methylphenyl)imidazolo[1,2-c]pyrimidin-7-yl)-2-fluorobenzonitrile] | 1 ± 0.2 | 2.42 | –
COc1ccc(-c2sc(N3CCC(N)CC3)nc2-c2ccc(C#N)c(F)c2)cc1O [Example 223, 4-(2-(4-aminopiperidin-1-yl)-5-(3-hydroxy-4-methoxyphenyl)thiazol-4-yl)-2-fluorobenzonitrile] | 0.1 ± 0.03 | 2.39 | –

Continued by falling IC50 (LSD1), values first:

IC50 (LSD1) [nM] | IC50 (NCI-H1417 cells; Homo sapiens, 168 h) [nM] | Compound | IC50 (NCI-H1417 cells) [nM]
77.5 | 446 | COc1ccc(C#Cc2c(O)cc(N3CCC(N)CC3)nc2-c2ccc(C#N)c(F)c2)cc1F [Example 27] | –
39.1 | 1.98 | O=C(c1cc(CN[C@@H]2C[C@H]2c2ccc(F)cc2)nc(-c2ccc(N3CCOCC3)cc2)n1)N1CCOCC1 [Example 245, (6-((1R,2S)-2-(4-fluorophenyl)cyclopropyl)amino)methyl)-2-(4-morpholinophenyl) pyrimidin-4-yl) (morpholino)methanone hydrochloride] | –
35 | > 1000 | Cc1ccc(-c2c(-c3ccc(C#N)cc3)cc3c(N4CC(N)C4)nccn23)cc1 [Example 188, 4-(1-(3-aminoazetidin-1-yl)-6-(p-tolyl)pyrrolo[1,2-a]pyrazin-7-yl)benzonitrile hydrochloride] | –
15.8 | 1.11 | O=C(NC1CCOCC1)c1cc(CN[C@@H]2C[C@H]2c2ccc(F)cc2)nc(-c2ccc(-n3ccnn3)cc2)n1 [Example 249] | –
3.5 | 4.58 | Cc1noc2cc(-c3c(-c4ccc(C#N)c(F)c4)nc(N4CCC(N)CC4)c4c3cnn4C)c(F)cc12 [Example 286, 4-(7-(4-aminopiperidin-1-yl)-4-(5-fluoro-3-methylbenzo[d]isoxazol-6-yl)-1-methyl-1H-pyrazolo [3,4-c]pyridin-5-yl)-2-fluorobenzonitrile] | –
2 ± 1.4 | 96.4 | N#Cc1ccc(-c2nc(N3CCC(N)CC3)cc(O)c2-c2cc(O)c(F)c(F)c2)cc1F [Example 46, 4-(6-(4-aminopiperidin-1-yl)-3-(3,4-difluoro-5-hydroxyphenyl)-4-hydroxypyridin-2-yl)-2-fluorobenzonitrile] | –
0.94 | 3.6 | Cc1noc2cc(-c3c(C#N)cc(N4CCC(N)CC4)nc3-c3ccc(C#N)c(F)c3)c(F)cc12 [Example 275, 6-(4-aminopiperidin-1-yl)-2-(4-cyano-3-fluorophenyl)-3-(5-fluoro-3-methylbenzo[d]isoxazol-6-yl)isonionitrile] | –
0.8 ± 0.08 | 34.2 | Cc1ccc(-c2c(-c3ccc(C#N)cc3)cc3c(N4CCC[C@@H](N)C4)nccn23)cc1 [Example 3, (R)-4-(1-(3-aminopiperidin-1-yl)-6-(p-tolyl)pyrrolo[1,2-a]pyrazine-7-yl)benzonitrile] | –
0.7 ± 0.3 | 2.35 | N#Cc1ccc(-c2nc(N3CCC(N)CC3)cc(O)c2-c2ccc(Cl)c(O)c2)cc1F [Example 59, 4-(6-(4-aminopiperidin-1-yl)-3-(4-chloro-3-hydroxyphenyl)-4-hydroxypyridin-2-yl)-2-fluorobenzonitrile] | –
0.591 | 6.33 | Cc1noc2cc(-c3c(-c4ccc(C#N)c(F)c4)nc(N4CCC(N)CC4)c4[nH]ncc34)c(F)cc12 [Example 288, 4-(7-(4-aminopiperidin-1-yl)-4-(5-fluoro-3-methylbenzo[d]isoxazol-6-yl)-1H-pyrazole[3,4-c]pyridin-5-yl)-2-fluorobenzonitrile hydrochloride] | –
0.29 ± 0.11 | 4.04 | CN[C@@H]1CCCN(c2nccn3c(-c4ccc(C)cc4)c(-c4ccc(C#N)cc4)cc23)C1 [Example 189, (R)-4-(1-(3-(methylamino)piperidin-1-yl)-6-(p-tolyl)pyrrolo[1,2-a]pyrazin-7-yl)benzonitrile hydrochloride] | –
0.265 | 5.97 | COc1ccc(-c2c(-c3ccc(C#N)c(F)c3)nc(N3CCC(N)CC3)c3[nH]ncc23)cc1O [Example 287, 4-(7-(4-aminopiperidin-1-yl)-4-(3-hydroxy-4-methoxyphenyl)-1H-pyrazolo[3,4-c]pyridin-5-yl)-2-fluorobenzonitrile hydrochloride] | –
